The values that follow come from PMC2904697, “A Screen for Kinetochore-Microtubule Interaction Inhibitors Identifies Novel Antitubulin Compounds” (PLoS ONE, 2010).

The test system of one assay is HeLa cells. Kind of assay: Spindle integrity and reversibility in HeLa cells (confocal IF imaging). As to conditions: for Time after washout until all cells had arrested with a mitotic spindle (reversibility): compound B 5 µmol/l, washout and release into MG132 containing medium. The assay is classed as cell-based, human. How it is done:
At compound B concentrations of 5 µmol/l and above, the cells arrested robustly in metaphase (∼15 h) and then underwent cell death, as diagnosed by cell shrinkage (Fig. 3B). […] This phenotype is indicative of chromatids being unable to bind to spindle MTs and/or of spindle defects, as observed with nocodazole (Fig. 3C). […] Because drugs that inhibit tubulin polymerization also destabilize MTs, we next probed whether compound B destabilized metaphase spindles. We arrested HeLa cells in metaphase using 10 µmol/l of proteosome inhibitor MG132. […] Thus, compound B prevents tubulin assembly and destabilizes spindle MTs in cells.
To probe whether the activity of compound B is reversible or not, we synchronously released G1/S arrested HeLa cells into fresh medium containing 5 µmol/l compound B (nocodazole was used as the positive control). The cells efficiently arrested in […] due to absence of a mitotic spindle (Fig. 3E, left column of images in each set). Compound B and nocodazole were then washed out and the cells were released in MG132 containing medium.
G1/S synchronization with 2.5 mmol/l thymidine was carried out for 16 h. IF imaging (Leica TCS SP2 confocal microscope) was performed on cells fixed with 4% paraformaldehyde, permeabilized with 0.1% Triton X-100 and treated with 4% BSA. The cells were incubated with appropriate antibodies diluted in 4% BSA in PBS. Primary antibodies used in IF imaging were mouse monoclonal antiNdc80 antibody (1∶1000, Genetex Clone 9G3.23), CREST serum (1∶50, Antibodies Incorporation) and mouse monoclonal anti-α-tubulin antibody (1∶2000, Sigma-Aldrich Clone B512). Secondary antibodies used were Alexa Fluor 488 (1∶150), Cy3 (1∶400) and Cy5 (1∶50) (Jackson Immunoresearch).

The subject of assay [1] is recombinant human Ndc80 kinetochore complex binding to taxol-stabilized microtubules. In words: Ndc80^488 complex-MT binding assay (fluorescence microscopy / TIRF). The note with it: for Effect on binding of the Ndc80^488 complex to taxol-stabilized MTs: compound 50 µmol/l, wide-field fluorescence microscopy; for IC50: total internal reflection fluorescence microscopy, Ndc80^488 complex 0.1 µmol/l, taxol-stabilized MTs. The text has this:
To screen compound libraries for molecules inhibiting binding of the outer kinetochore Ndc80 complex (Ndc80, Nuf2, Spc24, Spc25) to MTs, we used a fluorescence microscopy-based in vitro approach (Fig. 1). First, the recombinant human Ndc80 construct, used to crystallize the complex, was produced in Escherichia coli using a bicistronic plasmid from which the Nuf2-Spc24 and Ndc80-Spc25 peptides were generated (Fig. 1A). Following their intracellular assembly, the complex was purified from E. coli cell extract based on the GST tag at the N-terminus of Nuf2. The complex was released in solution with PreScission Protease (its recognition sequence was introduced between the GST tag and the NUF2 coding sequence) and was separated from contaminants by gel filtration chromatography (Fig. 1A). The high degree of purity of the preparation was confirmed by SDS-PAGE analysis and coomassie staining, which identified only both peptides (Fig. 1B). Next, the Ndc80 complex was fluorescently labeled with the Alexa Fluor 488 C5-maleimide (next named the Ndc80^488 complex) and was separated from unreacted fluorophore by gel filtration chromatography. The final preparation was highly pure as evidenced by gel filtration analysis and detection at 519 nm (emission maximum of the Alexa Fluor 488 dye) and at 280 nm (intrinsic protein fluorescence) (Fig. 1B). Next, the Ndc80^488 complex (0.1 µmol/l) was incubated with 10,200 compounds (comprising the Chembridge DIVERset and a compound collection from the Univ. Rome) at a starting concentration of 50 µmol/l. Binding (or lack thereof) of the complex to rhodamine-labeled taxol-stabilized MTs (0.1 µmol/l) was scored by wide-field fluorescence microscopy (Fig. 1C; images in Fig. 2A). […] Total internal reflection fluorescence microscopy was used to establish the IC50 value of the compound, which was measured to be ∼20 µmol/l (Fig. 2C).
Recombinant human Ndc80 complex (Ndc80^Bonsai complex) was produced in Escherichia coli using a bicistronic expression plasmid (Fig. 1A, [12]). Following transcription from the TAC promoter/operator by induction with 0.4 mmol/l IPTG (20°C, 15 h), GST-Nuf2-Spc24 and Ndc80-Spc25 polypeptides were generated, which dimerized intracellulary into the GST-Ndc80 complex. The complex was isolated from E. coli cell extract following incubation with glutathione beads. The complex was released from the beads with PreScission Protease (GE Healthcare Life Sciences) and contaminants were removed by gel filtration chromatography (Superdex 200, GE Healthcare Life Sciences). On average 4 mg of Ndc80 complex were obtained from 1 liter of cell culture. Next, 1 mg Ndc80 complex was labeled with 0.1 mg Alexa Fluor 488 C5-maleimide fluorophore (Invitrogen) at a 1.5-2 stoichiometry. The fluorescent complex (Ndc80^488 complex) was separated from unreacted fluorophore by gel filtration chromatography (Fig. 1B) and was then used to screen for compounds inhibiting Ndc80^488 complex-MT binding (Fig. 1C). The Ndc80^488 complex is fully functional as it is recruited to and acts at kinetochores when injected into prometaphase HeLa cells.
MTs were polymerized (30 min, 37°C) from a 1∶10 mixture of rhodamine-labeled:unlabeled bovine brain αβ-tubulin (Cytoskeleton) in BRB-80 buffer (80 mmol/l PIPES pH 6.8, 1 mmol/l MgCl2, 1 mmol/l EGTA) and were then stabilized with 20 µmol/l taxol. The Ndc80^488 complex (0.1 µmol/l) was incubated with 100 µmol/l compound (30 min, 24°C) in 96-well polypropylene plates (Eppendorf). The 10,000 compound DIVERset library (Chembridge) and 200 compounds from the Department of Medicinal Chemistry and Technologies, University of Rome La Sapienza were used in the screen. Next, the MTs (100 nmol/l) were added to the compound-Ndc80^488 complex solution in a 1∶1 v/v ratio. After incubation (10 min, 24°C), the reaction mixtures were transferred to 96-well glass-bottom plates (Greiner Bio-one). […]

Assay [2] relates to colchicine site in αβ-tubulin. Kind of assay: [3H]colchicine competition (DEAE-cellulose filter method). The assay is classed as binding. The note with it: [3H]colchicine 5 µmol/l, tubulin 1 µmol/l. An excerpt:
Agents that inhibit tubulin polymerization and destabilize MTs include the colchicinoids, combretastatins, benzimidazole carbamates, vinca alkaloids, and maytansinoids. These drugs act primarily at β-tubulin in the αβ-heterodimer, albeit at different sites. Colchicinoids, combretastatins and benzimidazole carbamates (e.g. nocodazole) localize to the colchicine site near the C-terminus of β-tubulin at the αβ-tubulin intradimer interface, [16], whereas vinca alkaloids and maytansinoids localize to the N-terminal GTPase domain of β-tubulin [17], [18]. […] Its binding affinity, however, was ∼3-fold lower than that of nocodazole (compare values at 5 µmol/l and 20 µmol/l, Fig. 5C).
Tubulin binding of [^3H]colchicine was measured by the DEAE-cellulose filter method. Reaction mixtures contained 1.0 µmol/l αβ-tubulin, 1.0 mol/l monosodium glutamate, 0.1 mol/l glucose-1-phosphate, 1.0 mmol/l MgCl2, 1.0 mmol/l GTP, 0.5 mg/ml BSA, 5% DMSO, 5 µmol/l [^3H]colchicine, and inhibitor at 1, 5, 20 or 50 µmol/l. These reaction conditions strongly stabilize the colchicine-binding activity of tubulin [21].

One may read the IC50 as the concentration needed to halve the response being measured.

Values joined by “and” are separate entries in the source; they are usually repeats but may differ in a detail not shown here. Equal values may be shown once. Bounds are passed on as bounds.

Take `Cc1c(C(=O)OCC2CCCO2)[nH]c2c1C(=O)CC(c1ccco1)C2` (stereo not drawn) [compound B, 6-furan-2-yl-3-methyl-4-oxo-4,5,6,7,-tetrahydro-1H-indole-2-carboxylic acid tetrahydro-furan-2-ylmethyl ester]: in the assay with HeLa cells (HeLa arrested with 10 µmol/l MG132, 10 µmol/l compound), the “Effect on metaphase spindles of MG132-arrested cells” value is recorded as “depolymerized the spindle”. The “Spindle formation in cells released from G1/S” value in the assay on HeLa cells (HeLa, 10 µmol/l compound, confocal IF) is “All cells lacked a mitotic spindle”. In addition, in the assay with HeLa cells (HeLa), the “Time after washout until all cells had arrested with a mitotic spindle (reversibility)” value is at most 3 h. In addition, in assay [1], the “Effect on binding of the Ndc80^488 complex to taxol-stabilized MTs” value is recorded as “active”; the 50% inhibitory concentration (IC50) is ~20 µM and 20 µM. Also, the “Binding affinity for the colchicine site, fold lower than that of nocodazole” value in assay [2] (values at 5 and 20 µmol/l compared) is about 3 fold. Also, the “Inhibition of [3H]colchicine binding to tubulin” value in assay [2] (compound 1–50 µmol/l) is reported as “significantly inhibited”.

In the case of `CCSCCOC(=O)c1[nH]c2c(c1C)C(=O)C[C@@H](c1ccco1)C2` [A8], in assay [1], the IC50 was ~1 µM and 1 µM. Moreover, the “Fold more active than compound B in the Ndc80^488 complex-MT binding assay” value in assay [1] (versus compound B) is given as about 20 fold. The “Fold more active than compound B as inhibitors of [3H]colchicine-tubulin binding” value in assay [2] was 3 fold.

Regarding `COC(=O)Nc1nc2ccc(C(=O)c3cccs3)cc2[nH]1` [nocodazole, reference compound], in the assay with HeLa cells (HeLa), the “Time after washout until all cells had arrested with a mitotic spindle (reversibility)” value was at most 3 h. In addition, in assay [1], the “Effect on binding of the Ndc80^488 complex to taxol-stabilized MTs” value is reported as “did not prevent”.
